For series [1], the system named is MCF7. The experiment in a line: Cell cycle arrest in human MCF7 cells assessed as accumulation at G2/M phase at 10 uM after 24 hrs by propidium iodide staining based flow cytometry (reference value: 22.61 +/- 1.55%). Format: functional. A general note: In flow cytometry, cells or beads pass a laser one at a time.
For series [2], the system named is MCF7. The experiment in a line: Downregulation of CDK4 protein expression in human MCF7 cells up to 10 uM after 24 hrs by Western blot method. Format: functional, cell-based. (In western blotting, separated proteins are transferred to a membrane and probed.)
In series [3] the test system is MCF7. The experiment in a line: Upregulation of cleaved PARP protein expression in human MCF7 cells after 24 hrs by Western blot method. Format: functional, cell-based.
Series [4] deals with MCF7. In words: Potency index, ratio of olaparib IC50 to compound IC50 for human MCF7 cells. Format: functional.
Series [5] can be described thus: Intrinsic clearance in human liver microsomes at 1.11 uM preincubated for 5 mins followed by NADPH addition by LC-MS/MS analysis. Format: ADME, microsome. Particulars: read-out: CLH.
The subject of series [6] is MCF7. In words: Induction of DNA double strand breaks in human MCF7 cells assessed as increase in 53BP1 level after 24 hrs by Western blot analysis. Format: functional, cell-based.
The next series deals with HCT-116. The experiment in a line: Antiproliferative activity against human HCT116 cells expressing topoisomerase-1 after 72 hrs by MTT assay. Format: functional, cell-based. Particulars: HCT-116, 72 h. On the technique in general: Tetrazolium dyes change colour on reduction, which living cells bring about.
For series [7], the system named is MCF7. In words: Cell cycle arrest in human MCF7 cells assessed as accumulation at G2/M phase at 5 uM after 24 hrs by propidium iodide staining based flow cytometry (reference value: 22.61 +/- 1.55%). Format: functional.
The nature of series [8]: Half life in rat liver microsomes at 1.11 uM preincubated for 5 mins followed by NADPH addition by LC-MS/MS analysis. Format: ADME, microsome.
The subject of series [9] is MCF7. In words: cells. Particulars: Homo sapiens, MCF7, 72 h.
Series [10] deals with MCF7. The experiment in a line: Downregulation of full length PARP protein expression in human MCF7 cells up to 10 uM after 24 hrs by Western blot method. Format: functional, cell-based.

Calls of active or inactive are those of the source. No cut-off for these calls is given here.

What is called IC50 is the concentration that inhibits the measured activity by half. Low values mean greater potency in that assay, high ones weaker potency in that assay. Usually half-life stands for the time in which the quantity being followed falls by half.

For `Cc1cccc2c(Nc3cccc(-c4nc5c(C(N)=O)cccc5[nH]4)c3)c3ccccc3nc12`, the Activity in the series with MCF7 [1] is 10.83%; in the series on MCF7 [3] it was “Dose-dependent effect”; in the series on MCF7 [6] it was “Dose-dependent effect”; with MCF7 [7], 14.08%. The outcome in the series on MCF7 [2] and with MCF7 [10] was Active. In addition, in the series on MCF7 [4], the “Ratio IC50” value was 17. In series [5], the microsomal CLint at 1.11 µM is 35.6 µL/min/mg. The figures for the IC50 in the series on HCT-116 and in the series with MCF7 [9] were 1430 nM and 2140 nM, respectively. Moreover, the half-life at 1.11 µM in [8] was found to be 34.8 min.
